Assays:
S. pneumoniae [1] = conditions: 15 seconds incubation, then DIBO-ATTOS 488 for 5 min
Protocol: The reaction is stopped by three washes with 1 ml of cold PBS. The bacterium is then re-suspended in 20-40 μl of PBS and observed immediately by fluorescence microscopy.

S. pneumoniae [2] = conditions: grown 4 hours with 30 μM, then 25 μM DIBO Alexa Fluor 5 min
From the text: (§1) The choice was oriented towards a rapid click reaction involving an azide function carried by the choline and the strained dibenzoannulated cyclooctyne DIBO carrying the fluorophore. […] For subsequent click reaction, fluorescent DIBO offers a compromise between stability and rapidity with a choice of commercially available fluorophores.

S. pneumoniae R800 = conditions: C-medium without choline, 30 μM
Protocol: FIG. 15. […] In C-medium without choline (*), with 30 μM azidocholine (†) or choline (‡).
as §1

S. pneumoniae live cells = assay: TA metabolic labeling on pneumococcal live cells (CuAAC with coumarin, fluorescence microscopy); format: cell-based, Streptococcus pneumoniae; conditions: copper 50 μM, THPTA, 30 min, five independent experiments
From the text: FIG. 10. TA metabolic labeling on pneumococcal live cells. A. Detection of metabolically incorporated propargyl-choline in S. pneumoniae living cells after bioorthogonal reaction. (i) and (ii) refer to two different stages of division. Membrane and septal TA labeling are indicated by black and white arrow heads, respectively. Phase contrast and fluorescence images in the presence (left panel) or absence of propargyl-choline (right panel) are shown. Scale bar=1 μm. B. Electron micrographs of pneumococcal cells at division stages (i) and (ii) as shown in A. C.
For bioorthogonal reactions, 10 ml of Cmed-choline and 10 ml of C-medium containing 4 μg/ml of propargyl-choline were inoculated at OD600 nm of 0.05 with aliquots of cells conditioned in C-medium as described above. The growth was pursued at 37° C.-5% CO2 for 3 hours until OD600 nm of 0.2-0.25 was reached, which corresponds to the early exponential growth phase. […]
Pneumococcal cells were transferred to microscope slides and observed using an Olympus BX61 optical microscope equipped with a UPFLN 100× O-2PH/1.3 objective and a QImaging Retiga-SRV 1394 cooled charge-coupled device camera. […] The cells are then sorted by their length value and the fluorescence values are plotted as a heat map. […]

Compound	labeling quality after short pulse (S. pneumoniae [1])	cell surface labeling pattern (S. pneumoniae [2])	ability to replace choline for growth (S. pneumoniae R800)	fluorescent signal ratio propargyl-choline/choline (S. pneumoniae live cells)
1-azidoethyl-choline	high-quality labeling	Uniform cell surface labeling	efficiently replaced choline to allow growth	
C#CC[N+](C)(C)CCO [propargyl-choline]				4.28±0.8
